According to patent US20050214316A1 (priority 2003, published 2005):
Like-named read-outs stand apart in the source and are kept apart here. Marks after values point to notes of the source that are not given here.

Tests used:
[1] = test system: commercial broilers (trials 1 and 2), SPF broilers (trial 3); assay type: in vivo, chicken; conditions: all three trials, vs saline controls
chickens = test system: chickens; parameters: species or system chicken; conditions: in vivo
2 week-old chickens = assay type: in vivo, chicken; conditions: for CBH-2 = (skin thickness, PHA-P injected foot) − (skin thickness, PSS injected foot) / CBH-1 = (skin thickness at 12 h post-injection, left foot) − (pre-injection skin thickness, left foot): 2 week-old chickens, mean ± standard deviation, n = 4; for CBH-1 = (skin thickness at 12 h post-injection, left foot) − (pre-injection skin thickness, left foot): PHA-P
[2] = test system: commercial broilers (trials 1 and 2), SPF broilers (trial 3); conditions: 7 dpi
[3] = test system: commercial broilers (trials 1 and 2), SPF broilers (trial 3); conditions: in vivo
[4] = test system: commercial broilers (trials 1 and 2), SPF broilers (trial 3); conditions: in vivo; remark: listed apart in the source
[5] = test system: commercial broilers (trials 1 and 2), SPF broilers (trial 3); conditions: in vivo; remark: listed apart in the source

O=P1(N(CCCl)CCCl)NCCCO1 (stereo not shown) [CP, Cyclophosphamide monohydrate]
bursa size [1]: significantly smaller
humoral immune response to NDV vaccination (chickens): significantly reduced
CBH-2 = (skin thickness, PHA-P injected foot) − (skin thickness, PSS injected foot) (2 week-old chickens; Trial 1, IBDV strain Variant E): .73 ± .01
CBH-1 = (skin thickness at 12 h post-injection, left foot) − (pre-injection skin thickness, left foot) (2 week-old chickens; Trial 1, IBDV strain Variant E): .67 ± .07
CBH-2 = (skin thickness, PHA-P injected foot) − (skin thickness, PSS injected foot) (2 week-old chickens; Trial 2, IBDV strain STC): .69 ± .2
CBH-1 = (skin thickness at 12 h post-injection, left foot) − (pre-injection skin thickness, left foot) (2 week-old chickens; Trial 2, IBDV strain STC): .69 ± .18
CBH-2 = (skin thickness, PHA-P injected foot) − (skin thickness, PSS injected foot) (2 week-old chickens; Trial 3, IBDV strain STC): .31 ± .07
CBH-1 = (skin thickness at 12 h post-injection, left foot) − (pre-injection skin thickness, left foot) (2 week-old chickens; Trial 3, IBDV strain STC): .34 ± .06
CBH response (2 week-old chickens; vs saline control group): small reduction
thymus size [2]: smaller than the rest of the groups
bursal microscopic lesions [3]: marked lymphocytic depletion and atrophy of the bursa
clinical appearance [4]: decreased feathering and appeared weak
Proventriculus score (severity of proventricular lesions) [5]: 1.00^a
